# Assay results taken from doi:10.1101/2025.08.05.668571v1, “Preliminary Study on the Mechanisms of Cytokinin and Its Receptor Binding Diversity” (biorxiv, 2025).
# Target: T1, AHK4^CD (6×His-AHK4^CD-GFP) (Arabidopsis thaliana, UniProt Q9C5U0)
# T1 construct: extracellular CHASE domain, residues 126-395; N-terminal 6×His via linker, C-terminal GFP, tags kept; pRSF-Duet, E. coli Rosetta (BL21), Ni-NTA
# T1 sequence (Q9C5U0 149-418): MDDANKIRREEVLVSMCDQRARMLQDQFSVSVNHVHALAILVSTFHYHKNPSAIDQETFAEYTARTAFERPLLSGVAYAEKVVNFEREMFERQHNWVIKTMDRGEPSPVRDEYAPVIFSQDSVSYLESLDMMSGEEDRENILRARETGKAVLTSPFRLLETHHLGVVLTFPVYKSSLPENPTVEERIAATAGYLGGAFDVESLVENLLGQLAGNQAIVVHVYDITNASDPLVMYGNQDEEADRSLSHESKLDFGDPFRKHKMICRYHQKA
# Test: microscale thermophoresis (MST), GFP-tagged target
# Format: binding
row,Kd [nM],Structure (SMILES)
1,540 ± 262,CC(C)=CCNc1ncnc2nc[nH]c12 [2iP]
2,27.7 ± 20.7,c1ccc(CNc2ncnc3nc[nH]c23)cc1 [6-BA]
